Experiments:
[1] = biological target: Bovine Serum Albumin (BSA) (Bos taurus, UniProt P02769); assay: Flocculation: interaction of ZLC with BSA solutions (turbidity, pH, observation); format: physicochemical; details: for Turbidity (NTU) / observation / pH: ZLC about 15 mg/ml, 5 hours at 37° C.
Experimental: Turbidity and pH of solutions are measured 5 hours after the mixtures were placed in a 37° C. oven, and the results are shown in Table 3.

[2] = Hydrolysis reaction: pH and turbidity of diluted ZLC solutions before and after aging; format: physicochemical; details: for pH after aging / turbidity after aging (NTU): aged in 37° C. oven over 5 hours; for initial pH / initial turbidity (NTU): before aging; for initial turbidity (NTU): nephelometer
Experimental: Hydrolysis reaction: A 185 mg/ml ZLC solution is prepared and diluted several-fold and aged in a 37° C. oven over 5 hours for turbidity studies. […] Turbidity of the solutions is measured using a nephelometer, results being given in nephelometric turbidity units (NTU).
The precipitates formed in the 8×, 16× and 32× diluted solutions are collected by centrifugation and identified as crystalline ZnO by PXRD. From the supernatant, a single crystal is grown and shown by X-ray diffraction to be Lysine Monohydrochloride Dihydrate (LysineHCl·2H2O).
The mechanism of the ZLC hydrolysis reaction can be expressed as [Zn(Lysine)2Cl]^+Cl^−·2H2O+H2O→ZnO+Lysine·HCl·2H2O

[3] = sample 1: DI water, 0% BSA, initial pH 6.4
[4] = sample 2: 1% BSA, initial pH 7.2
[5] = sample 3: 1% BSA, pH adjusted to 5.1

Sequence of Bovine Serum Albumin (BSA) (P02769 25-607): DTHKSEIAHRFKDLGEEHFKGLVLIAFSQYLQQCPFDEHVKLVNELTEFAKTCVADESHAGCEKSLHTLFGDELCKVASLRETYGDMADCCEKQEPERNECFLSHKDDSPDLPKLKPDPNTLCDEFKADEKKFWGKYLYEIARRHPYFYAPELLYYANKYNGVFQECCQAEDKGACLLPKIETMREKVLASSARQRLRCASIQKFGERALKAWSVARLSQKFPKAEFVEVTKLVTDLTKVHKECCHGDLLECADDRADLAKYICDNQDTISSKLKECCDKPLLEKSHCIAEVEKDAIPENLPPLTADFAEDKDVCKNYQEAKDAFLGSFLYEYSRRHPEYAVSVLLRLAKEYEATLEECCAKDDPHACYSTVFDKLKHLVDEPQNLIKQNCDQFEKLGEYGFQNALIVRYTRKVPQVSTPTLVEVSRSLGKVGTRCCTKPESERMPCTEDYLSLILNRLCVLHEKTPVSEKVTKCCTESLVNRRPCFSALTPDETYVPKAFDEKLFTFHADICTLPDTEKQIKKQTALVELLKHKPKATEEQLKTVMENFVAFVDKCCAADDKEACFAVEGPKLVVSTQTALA

With `NCCCCC(N)C(=O)O.NCCCCC(N)C(=O)O.O.O.[Cl-].[Cl-].[Zn+2]` (centres unmarked) [ZLC, [Zn(C6H14N2O2)2Cl]^+Cl^−] the protein flocculation ([1]; BSA as protein) was “ability to flocculate proteins”, the “Turbidity (NTU)” value [1, 3] was 357 NTU and the observation [1, 3] was “slightly cloudy”. For the same compound, the pH [1, 3] was 8, the “Turbidity (NTU)” value [1, 4] was over 1000 NTU and the observation [1, 4] was “very cloudy”. For the same compound, the pH [1, 4] was 8.2, the “Turbidity (NTU)” value [1, 5] was over 1000 NTU and the observation [1, 5] was “very cloudy”. The pH [1, 5] was 8, the pH after aging ([2]; 5.78 mg/ml ZLC solution) was 8 and the “turbidity after aging (NTU)” value ([2]; 5.78 mg/ml ZLC solution) was over 1000 NTU. The “initial pH” value ([2]; 5.78 mg/ml ZLC solution) was 8, the “initial turbidity (NTU)” value ([2]; 5.78 mg/ml ZLC solution) was 40.1 NTU and the pH after aging ([2]; 11.56 mg/ml ZLC solution) was 7.8. The “turbidity after aging (NTU)” value ([2]; 11.56 mg/ml ZLC solution) was over 1000 NTU, the “initial pH” value ([2]; 11.56 mg/ml ZLC solution) was 7.8 and the “initial turbidity (NTU)” value ([2]; 11.56 mg/ml ZLC solution) was 14.8 NTU. The pH after aging ([2]; 23.125 mg/ml ZLC solution) was 7.7, the “turbidity after aging (NTU)” value ([2]; 23.125 mg/ml ZLC solution) was 247.4 NTU and the “initial pH” value ([2]; 23.125 mg/ml ZLC solution) was 7.7. For the same compound, the “initial turbidity (NTU)” value ([2]; 23.125 mg/ml ZLC solution) was 0.7 NTU, the pH after aging ([2]; 46.25 mg/ml ZLC solution) was 7.4 and the “turbidity after aging (NTU)” value ([2]; 46.25 mg/ml ZLC solution) was 2.8 NTU. The “initial pH” value ([2]; 46.25 mg/ml ZLC solution) was 7.4, the “initial turbidity (NTU)” value ([2]; 46.25 mg/ml ZLC solution) was 1.5 NTU and the pH after aging ([2]; 92.5 mg/ml ZLC solution) was 7. The “turbidity after aging (NTU)” value ([2]; 92.5 mg/ml ZLC solution) was 2.6 NTU, the “initial pH” value ([2]; 92.5 mg/ml ZLC solution) was 7 and the “initial turbidity (NTU)” value ([2]; 92.5 mg/ml ZLC solution) was 2.8 NTU. The pH after aging ([2]; 185 mg/ml ZLC solution) was 6.8, the “turbidity after aging (NTU)” value ([2]; 185 mg/ml ZLC solution) was 4.1 NTU and the “initial pH” value ([2]; 185 mg/ml ZLC solution) was 6.8. The “initial turbidity (NTU)” value ([2]; 185 mg/ml ZLC solution) was 4.7 NTU and the “stability of the complex upon dilution with water” value ([2]; precipitates of 8×, 16× and 32× diluted solutions identified as crystalline ZnO by PXRD) was “disassociates upon dilution”.
